Reference: ChEMBL document CHEMBL3046418, “Synthesis and Herbicidal Activity of Sulfonylurea Compounds with Imidazo [1, 2-a] pyridine Moiety” (2001)

Key:
Format in all cases: functional
Alopecurus myosuroides [1] = experiment: Herbicidal activity against Alopecurus myosuroides after 3 weeks by post-emergence greenhouse test; set-up: concentration or dose not given beside the values
Mutarda arvensis [2] = experiment: Herbicidal activity against Sinapis arvensis after 3 weeks by post-emergence greenhouse test; set-up: concentration or dose not given beside the values
Matricaria chamomilla [3] = experiment: Herbicidal activity against Matricaria chamomilla after 4 weeks by pre-emergence greenhouse test; set-up: concentration or dose not given beside the values
Triticum aestivum [4] = experiment: Phytotoxic activity against Triticum aestivum (wheat) after 3 weeks by post-emergence greenhouse test; set-up: concentration or dose not given beside the values
Stellaria media [5] = experiment: Herbicidal activity against Stellaria media after 3 weeks by post-emergence greenhouse test; set-up: concentration or dose not given beside the values
Alopecurus myosuroides [6] = experiment: Herbicidal activity against Alopecurus myosuroides after 4 weeks by pre-emergence greenhouse test; set-up: concentration or dose not given beside the values
Avena fatua [7] = experiment: Herbicidal activity against Avena fatua after 3 weeks by post-emergence greenhouse test; set-up: concentration or dose not given beside the values
Chenopodium album [8] = experiment: Herbicidal activity against Chenopodium album after 4 weeks by pre-emergence greenhouse test; set-up: concentration or dose not given beside the values
Mutarda arvensis [9] = experiment: Herbicidal activity against Sinapis arvensis after 4 weeks by pre-emergence greenhouse test; set-up: concentration or dose not given beside the values
Bromus tectorum [10] = experiment: Herbicidal activity against Bromus tectorum after 3 weeks by post-emergence greenhouse test; set-up: concentration or dose not given beside the values
Chenopodium album [11] = experiment: Herbicidal activity against Chenopodium album after 3 weeks by post-emergence greenhouse test; set-up: concentration or dose not given beside the values
Matricaria chamomilla [12] = experiment: Herbicidal activity against Matricaria chamomilla after 3 weeks by post-emergence greenhouse test; set-up: concentration or dose not given beside the values
Stellaria media [13] = experiment: Herbicidal activity against Stellaria media after 4 weeks by pre-emergence greenhouse test; set-up: concentration or dose not given beside the values
Triticum aestivum [14] = experiment: Phytotoxic activity against Triticum aestivum (wheat) after 4 weeks by pre-emergence greenhouse test
Avena fatua [15] = experiment: Herbicidal activity against Avena fatua after 4 weeks by pre-emergence greenhouse test; set-up: concentration or dose not given beside the values
Bromus tectorum [16] = experiment: Herbicidal activity against Bromus tectorum after 4 weeks by pre-emergence greenhouse test; set-up: concentration or dose not given beside the values

Structure (SMILES) | Activity (Alopecurus myosuroides [1]) [%] | Activity (Mutarda arvensis [2]) [%] | Activity (Matricaria chamomilla [3]) [%] | Activity (Triticum aestivum [4]) [%] | Activity (Stellaria media [5]) [%] | Activity (Alopecurus myosuroides [6]) [%] | Activity (Avena fatua [7]) [%] | Activity (Chenopodium album [8]) [%] | Activity (Mutarda arvensis [9]) [%] | Activity (Bromus tectorum [10]) [%] | Activity (Chenopodium album [11]) [%] | Activity (Matricaria chamomilla [12]) [%] | Activity (Stellaria media [13]) [%] | Phytotoxicity (Triticum aestivum [14]) [%] | Activity (Avena fatua [15]) [%] | Activity (Bromus tectorum [16]) [%]
COc1cc(OC)nc(NC(=O)NS(=O)(=O)c2c(Sc3ccccc3)nc3ccccn23)n1 | 0 | 51 | 51 | 1 | 1 | 0 | 0 | 0 | 1 | 0 | 0 | 1 | 0 | 0 | 0 | 0
COc1cc(OC)nc(NC(=O)NS(=O)(=O)c2c(SC(C)C)nc3ccccn23)n1 | 1 | 51 | 88 | 0 | 1 | 0 | 0 | 1 | 1 | 1 | 1 | 51 | 0 | 0 | 0 | 0
CCS(=O)(=O)c1nc2ccccn2c1S(=O)(=O)NC(=O)Nc1nc(Cl)cc(OC)n1 | 51 | 100 | 51 | 0 | 1 | 1 | 1 | 0 | 76 | 51 | 1 | 1 | 1 | 0 | 0 | 1
COc1cc(OC)nc(NC(=O)NS(=O)(=O)c2c(S(=O)(=O)C(C)C)nc3ccccn23)n1 | 88 | 51 | 88 | 0 | 76 | 88 | 1 | 76 | 88 | 51 | 1 | 51 | 51 | 0 | 1 | 51
COc1cc(OC)nc(NC(=O)NS(=O)(=O)c2c(SC)nc3ccccn23)n1 | 1 | 88 | 88 | 0 | 1 | 1 | 0 | 51 | 1 | 1 | 0 | 76 | 51 | 0 | 0 | 0
CCS(=O)(=O)c1nc2ccccn2c1S(=O)(=O)NC(=O)Nc1nc(C)cc(C)n1 | 51 | 76 | 1 | 1 | 1 | 0 | 51 | 1 | 51 | 51 | 51 | 1 | 0 | 0 | 0 | 1
CCSc1nc2ccccn2c1S(=O)(=O)NC(=O)Nc1nc(OC)cc(OC)n1 | 51 | 76 | 88 | 0 | 1 | 51 | 1 | 1 | 51 | 1 | 1 | 51 | 0 | 0 | 0 | 0
CCC[S+]([O-])c1nc2ccccn2c1S(=O)(=O)NC(=O)Nc1nc(OC)cc(OC)n1 (stereo unspecified) | 1 | 51 | 76 | 0 | 51 | 0 | 0 | 0 | 1 | 1 | 1 | 1 | 0 | 0 | 0 | 0
COc1cc(OC)nc(NC(=O)NS(=O)(=O)c2c([S+](C)[O-])nc3ccccn23)n1 (stereo unspecified) | 0 | 76 | 51 | 0 | 0 | 0 | 0 | 0 | 51 | 1 | 0 | 76 | 0 | 0 | 0 | 0
COc1cc(OC)nc(NC(=O)NS(=O)(=O)c2c(S(=O)(=O)c3ccccc3)nc3ccccn23)n1 | 0 | 51 | 1 | 0 | 1 | 0 | 0 | 0 | 1 | 0 | 0 | 1 | 0 | 0 | 0 | 0
CC[S+]([O-])c1nc2ccccn2c1S(=O)(=O)NC(=O)Nc1nc(OC)cc(OC)n1 (stereo unspecified) | 1 | 51 | 88 | 0 | 1 | 1 | 0 | 1 | 1 | 51 | 1 | 76 | 1 | 0 | 0 | 0
COc1cc(OC)nc(NC(=O)NS(=O)(=O)c2c([S+]([O-])c3ccccc3)nc3ccccn23)n1 (stereo unspecified) | 1 | 51 | 1 | 0 | 1 | 0 | 0 | 0 | 1 | 1 | 0 | 1 | 0 | 0 | 0 | 0
CCCSc1nc2ccccn2c1S(=O)(=O)NC(=O)Nc1nc(OC)cc(OC)n1 | 1 | 51 | 88 | 0 | 1 | 1 | 0 | 0 | 1 | 1 | 0 | 0 | 0 | 0 | 0 | 0
COc1cc(OC)nc(NC(=O)NS(=O)(=O)c2c([S+]([O-])C(C)C)nc3ccccn23)n1 (stereo unspecified) | 1 | 1 | 1 | 0 | 1 | 0 | 0 | 0 | 1 | 1 | 1 | 1 | 0 | 0 | 0 | 0
CCCS(=O)(=O)c1nc2ccccn2c1S(=O)(=O)NC(=O)Nc1nc(OC)cc(OC)n1 | 76 | 76 | 88 | 0 | 76 | 76 | 1 | 0 | 51 | 51 | 0 | 51 | 76 | 0 | 0 | 1
COc1cc(OC)nc(NC(=O)NS(=O)(=O)c2c(S(C)(=O)=O)nc3ccccn23)n1 | 76 | 88 | 88 | 1 | 76 | 76 | 1 | 1 | 100 | 76 | 1 | 88 | 51 | 0 | 1 | 76
